From patent US12180193B2, “Accelerating fibrosarcoma protein degrading compounds and associated methods of use” (Arvinas Operations, Inc., priority 2020, dated 2024)

Assays:
BRAF G466V = target: T1, BRAF G466V (Homo sapiens, UniProt P15056, G466V); experiment: Cellular assay of target protein degradation, T-Rex 293 cells stably transfected with HA-BRAF G466V (HA immunofluorescence, high content imaging); assay type: cell-based; details: T-Rex 293 HA-BRAF G466V; for DC50: half maximal degradation, read-out: BRaf G466V DC50; for Dmax: maximum degradation observed
T1 construct: expressed in transfected cells
T1 sequence (P15056 whole entry G466V): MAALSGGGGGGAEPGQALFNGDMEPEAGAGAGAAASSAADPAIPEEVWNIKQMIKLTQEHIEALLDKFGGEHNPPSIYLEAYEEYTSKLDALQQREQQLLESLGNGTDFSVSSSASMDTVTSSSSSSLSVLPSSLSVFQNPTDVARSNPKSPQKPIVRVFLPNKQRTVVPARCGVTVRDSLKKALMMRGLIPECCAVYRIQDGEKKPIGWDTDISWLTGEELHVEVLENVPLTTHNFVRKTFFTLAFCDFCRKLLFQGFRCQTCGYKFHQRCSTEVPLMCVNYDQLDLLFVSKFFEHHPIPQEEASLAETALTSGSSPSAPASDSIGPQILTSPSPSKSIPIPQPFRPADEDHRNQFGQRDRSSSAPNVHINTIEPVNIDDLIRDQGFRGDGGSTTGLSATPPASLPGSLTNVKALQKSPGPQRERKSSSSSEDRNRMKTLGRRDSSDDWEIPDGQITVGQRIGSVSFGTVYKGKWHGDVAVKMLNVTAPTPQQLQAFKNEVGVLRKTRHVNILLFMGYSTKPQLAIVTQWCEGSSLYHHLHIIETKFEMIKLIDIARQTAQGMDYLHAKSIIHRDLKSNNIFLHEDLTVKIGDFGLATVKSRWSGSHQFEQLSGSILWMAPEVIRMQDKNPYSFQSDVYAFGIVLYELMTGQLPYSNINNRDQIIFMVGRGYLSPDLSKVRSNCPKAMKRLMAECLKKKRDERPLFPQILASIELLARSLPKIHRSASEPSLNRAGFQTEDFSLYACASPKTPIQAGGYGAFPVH
In short: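 Dose range spans 30 nM to 3 pM (0.1% DMSO) over 24 hours at 37° C, in cells induced with 0.75 ng/mL doxycycline. Fixed cells are probed with anti-HA antibody overnight at 4° C, then imaged; half-maximal degradation and maximum degradation are derived.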

BRAF V600E = target: T2, BRAF V600E (Homo sapiens, UniProt P15056, V600E); experiment: Cellular assay of target protein degradation, T-Rex 293 cells stably transfected with HA-BRAF_V600E (HA immunofluorescence, high content imaging); assay type: cell-based; details: T-Rex 293 HA-BRAF V600E; for DC50: half maximal degradation, read-out: BRaf V600E DC50; for Dmax: maximum degradation observed
T2 construct: expressed in transfected cells
T2 sequence (P15056 whole entry V600E): as the sequence (P15056 whole entry G466V) above, with V466G, V600E counted along it
In short: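 Degradation of the HA-tagged construct is measured after 24 h treatment at 37 °C across 1 μM to 0.1 nM in 0.1% DMSO, in doxycycline-induced (1 ng/mL) cells. DC50 and Dmax come from HA fluorescence imaging.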

SMILES | DC50 (BRAF G466V) [nM] | Dmax (BRAF G466V) [%] | DC50 (BRAF V600E) [nM] | Dmax (BRAF V600E) [%]
O=C1CCC(N2Cc3cc(C4CCN(C[C@H]5C[C@H]6CC[C@@H](C5)N6c5ccc(-c6cnc7[nH]cc(C(=O)c8c(F)ccc(NS(=O)(=O)N9CC[C@@H](F)C9)c8F)c7c6)cc5)CC4)ccc3C2=O)C(=O)N1 (stereo partly drawn) [Compound 188, (3R)-N-[3-(5-{4-[(1R,3R,5S)-3-({4-[2-(2,6-dioxopiperidin-3-yl)-1-oxo-2,3-dihydro-1H-isoindol-5-yl]piperidin-1-yl}methyl)-8-azabicyclo[3.2.1]octan-8-yl]phenyl}-1H-pyrrolo[2,3-b]pyridine-3-carbonyl)-2,4-difluorophenyl]-3-fluoropyrrolidine-1-sulfonamide] | 1 to 10 | > 70 | 5 to 50 | 35 to 70
O=C1CCC(N2C(=O)c3ccc(C4CCN(CC5CCN(c6ccc(-c7cnc8[nH]cc(C(=O)c9c(F)ccc(NS(=O)(=O)N%10CC[C@@H](F)C%10)c9F)c8c7)cc6)CC5)CC4)cc3C2=O)C(=O)N1 (stereo partly drawn) [Compound 323, (3R)-N-[3-(5-{4-[4-({4-[2-(2,6-dioxopiperidin-3-yl)-1,3-dioxo-2,3-dihydro-1H-isoindol-5-yl]piperidin-1-yl}methyl)piperidin-1-yl]phenyl}-1H-pyrrolo[2,3-b]pyridine-3-carbonyl)-2,4-difluorophenyl]-3-fluoropyrrolidine-1-sulfonamide] | 10 to 30 | 35 to 70 | 50 to 500 | < 35
O=C1CC[C@H](N2Cc3cc([C@H](O)CCN4CC5(C4)CN(c4ccc(-c6cnc7[nH]cc(C(=O)c8c(F)ccc(NS(=O)(=O)N9CC[C@@H](F)C9)c8F)c7c6)cc4)C5)ccc3C2=O)C(=O)N1 [Compound 105, (3R)—N-[3-[5-[4-[6-[(3R)-3-[2-[(3S)-2,6-dioxo-3-piperidyl]-1-oxo-isoindolin-5-yl]-3-hydroxy-propyl]-2,6-diazaspiro[3.3]heptan-2-yl]phenyl]-1H-pyrrolo[2,3-b]pyridine-3-carbonyl]-2,4-difluoro-phenyl]-3-fluoro-pyrrolidine-1-sulfonamide] | 1 to 10 | 35 to 70 | 5 to 50 | 35 to 70
O=C1CCC(N2Cc3cc(N4CC5(CCN(CC#Cc6ccc(-c7cnc8[nH]cc(C(=O)c9c(F)ccc(NS(=O)(=O)N%10CC[C@@H](F)C%10)c9F)c8c7)cc6)C5)C4)ccc3C2=O)C(=O)N1 (stereo partly drawn) [Compound 4, (3R)-N-(3-{5-[4-(3-{2-[2-(2,6-dioxopiperidin-3-yl)-1-oxo-2,3-dihydro-1H-isoindol-5-yl]-2,6-diazaspiro[3.4]octan-6-yl}prop-1-yn-1-yl)phenyl]-1H-pyrrolo [2,3-b]pyridine-3-carbonyl}-2,4-difluorophenyl)-3-fluoropyrrolidine-1-sulfonamide] | 1 to 10 | 35 to 70 | 50 to 500 | < 35
O=C1CC[C@@H](N2Cc3cc(N4CCC(CN5CCN(c6ccc(-c7cnc8[nH]cc(C(=O)c9c(F)ccc(NS(=O)(=O)N%10CC[C@@H](F)C%10)c9F)c8c7)cc6)CC5)CC4)c(F)cc3C2=O)C(=O)N1 [Compound 41, (3R)-N-{3-[5-(4-{4-[(1-{2-[(3R)-2,6-dioxopiperidin-3-yl]-6-fluoro-1-oxo-2,3-dihydro-1H-isoindol-5-yl}piperidin-4-yl)methyl]piperazin-1-yl}phenyl)-1H-pyrrolo[2,3-b]pyridine-3-carbonyl]-2,4-difluorophenyl}-3-fluoropyrrolidine-1-sulfonamide] | 1 to 10 | 35 to 70 | > 500 | > 70
CN(CCO)S(=O)(=O)Nc1ccc(F)c(C(=O)c2c[nH]c3ncc(-c4ccc(N5CCC(CN6CCC(c7ccc8c(c7)CN([C@H]7CCC(=O)NC7=O)C8=O)CC6)CC5)cc4)cc23)c1F [Compound 280, (3S)-3-(5-{1-[(1-{4-[3-(2,6-difluoro-3-{[(2-hydroxyethyl)(methyl)sulfamoyl]amino}benzoyl)-1H-pyrrolo[2,3-b]pyridin-5-yl]phenyl}piperidin-4-yl)methyl]piperidin-4-yl}-1-oxo-2,3-dihydro-1H-isoindol-2-yl) piperidine-2,6-dione] | 1 to 10 | 35 to 70 | 5 to 50 | 35 to 70
